Here are results for four compounds from paper PMC5114727, “Biological characterization of chemically diverse compounds targeting the Plasmodium falciparum coenzyme A synthesis pathway” (Parasites & Vectors, 2016).

“And” between values parts separate entries of the source, which are not always exact repeats. Equal values may be shown once. Read-outs that look alike come from different tables or passages of the source.

As usually defined, the IC50 is the point on the concentration scale where inhibition reaches its midpoint.

Data set [1] relates to T. b. brucei trypomastigote. Nature of the data set: T. b. brucei resazurin (Alamar Blue) viability assay. It counts as cell-based, Trypanosoma brucei brucei. How it is done:
Compound activity against two members of another clinically important group of parasites, the kinetoplastids T. cruzi and T. b. brucei was determined. The sensitive high content imaging assay used to determine compound activity against T. cruzi assesses the intracellular amastigote life form of the parasite in the 3T3 host cell. […] The T. b. brucei assay employs the REDOX indicator Alamar Blue to assess viability, which was developed into a 384-well assay format.
Compound activity against T. b. brucei was assessed in a resazurin-based viability assay in concentration-response assays, without technical repeats, in two experimental replicates at a highest concentration of 40 μM, as previously described.

The next data set deals with T. cruzi amastigotes. Nature of the data set: T. cruzi amastigote image-based assay in 3T3 host cells. It counts as cell-based, Trypanosoma cruzi. Conditions: for T. cruzi amastigote percent inhibition at the highest concentration tested: 40 µM per footnote, given if an IC50 could not be calculated; for IC50: in 3T3 host cells, read-out: T. cruzi amastigote IC50 ± SEM. The protocol: The next step taken was to determine whether the activity of the compounds was confined to P. falciparum, or whether it extended to other protozoan parasites. Compound activity against two members of another clinically important group of parasites, the kinetoplastids T. cruzi and T. b. brucei was determined. The sensitive high content imaging assay used to determine compound activity against T. cruzi assesses the intracellular amastigote life form of the parasite in the 3T3 host cell. It is important to simultaneously assess compound activity against 3T3 cells to determine potential cytotoxicity against the host cell line, since this could result in a false positive outcome. The T. b. brucei assay employs the REDOX indicator Alamar Blue to assess viability, which was developed into a 384-well assay format.
Compound activity against T. cruzi amastigotes was assessed in an image-based assay in single point concentration-response and three biological replicates, at a final highest compound concentration of […], as previously described.

Another data set deals with T. cruzi trypomastigotes. Nature of the data set: T. cruzi trypomastigote PrestoBlue assay. It counts as cell-based, Trypanosoma cruzi. Conditions: for IC50: highest concentration 40 μM, read-out: T. cruzi trypomastigote IC50 ± SEM. The protocol:
Compound activity against T. cruzi trypomastigotes was assessed in two independent experiments, without technical repeats, at a final highest compound concentration of 40 μM in concentration-response PrestoBlue assay, as previously described.

The next data set deals with 3T3 cells. Briefly: 3T3 host cell cytotoxicity (part of T. cruzi amastigote image-based assay). The following applies: bound = highest concentration with < 50 % inhibition; read-out: 3T3 cytotoxicity IC50 ± SEM. Further details: species or system mouse. An excerpt:
(§1) An initial indication of compound selectivity over human cells had previously been obtained through comparison of the compounds’ IC50 values against P. falciparum asexual stages and HEK293 [22]. In the present study, the selectivity investigation was extended to a small panel of human cancer cell lines, namely the estrogen receptor (ER)-positive breast cancer cell line MCF7, the ER-negative MDA-MB-231, as well as the human prostate cancer line, PC-3. Additionally, the cytotoxic effects on mouse embryonic fibroblast cell line 3T3, which serves as the host cell for T. cruzi in our image-based amastigote assay, were investigated.
(§2) Cytotoxicity of the compounds was assessed against a panel of human cancer cell lines, namely the estrogen receptor (ER)-positive breast cancer cell line MCF7, the ER-negative MDA-MB-231 and the prostate cancer line PC-3. All the cell lines were purchased from ATCC and maintained as previously described. Two biological replicates consisting of two technical replicates each were performed to generate concentration response curves (CRC) with a final highest concentration of 40 μM. A resazurin-based assay was utilized to determine cell viability as described earlier. Additionally, the cytotoxic effects on the mouse embryonic fibroblast cell line 3T3 were assessed as part of the Trypanosoma cruzi amastigote image-based assay as outlined in [35].

The subject of another data set is MCF7 cells. Briefly: Resazurin cytotoxicity assay, MCF7. The following applies: highest concentration 40 μM; bound = highest concentration with < 50 % inhibition; read-out: MCF7 cytotoxicity IC50 ± SEM. It counts as cell-based, human.
Excerpt: as §1, §2
A general note: The colour change of resazurin is a common sign of viable cells or microbes.

Another data set deals with MDA-MB-231 cells. Briefly: Resazurin cytotoxicity assay, MDA-MB-231. It counts as cell-based, human. Conditions: highest concentration 40 μM; bound = highest concentration with < 50 % inhibition; read-out: MDA-MB-231 cytotoxicity IC50 ± SEM.
Excerpt: as §1, §2

In data set [2] the test system is P. falciparum early stage gametocytes (PfEG, stage I-III). Briefly: Chemical rescue with CoA pathway intermediates, early stage gametocytes. The following applies: for Percent rescue ± SEM by CoA, PfEG: CoA 1.6 mM; for Percent rescue ± SEM by CoA, PfEG / Percent rescue ± SEM by pantethine, PfEG / Percent rescue ± SEM by pantothenate, PfEG: inhibitor at IC80; for Percent rescue ± SEM by pantethine, PfEG: pantethine 10 mM; for Percent rescue ± SEM by pantothenate, PfEG: pantothenate 625 μM. It counts as cell-based, Plasmodium falciparum. How it is done:
(§3) Pantothenate is the first substrate of the pathway (Fig. 1) and its addition was intended to rescue the action of possible competitive inhibitors of the first enzyme, PanK. […] It is not known, whether P. falciparum is capable of pantetheine phosphorylation for utilization in CoA synthesis. […] Finally, the rescue ability of dP-CoA, the final substrate of CoA synthesis, was tested. […] Inhibitors competing with dP-CoA for DPCK binding were expected to be displaced, thereby rescuing parasite survival, by dP-CoA supplementation in a concentration dependent manner.
(§4) An imaging based assay was utilised to assess the chemical rescue on asexual stages of P. falciparum as described previously. All the pathway intermediates were purchased from Sigma. CoA and dP-CoA were dissolved in sterile distilled water to obtain a 20 mM stock solution, which was then aliquoted and stored at -20 °C until use. […] Each pathway intermediate was tested on the parasites at a range of concentrations to assess potential toxicity. […] On early stage P. falciparum gametocytes the same concentrations as for CoA were tested for dP-CoA; against asexual blood stage P. falciparum, late stage gametocytes and Trypanosoma b. brucei five dP-CoA concentrations were tested (2 mM, 1.5 mM, 1 mM, 0.75 mM and 0.5 mM).
(§5) The same concentration ranges of the CoA pathway intermediates were supplemented to parasites treated with the experimental compounds. […] The negative control used in each assay was 0.4% DMSO, whilst the positive control was 2 μM artemisinin for asexual P. falciparum blood stages and 5 μM puromycin for all gametocyte stages and T. b. brucei. The percentage growth of the respective parasites following compound treatment was determined using Microsoft ® Excel 2010, and compared with their controls. All rescue assays were performed as two independent experiments each in duplicate point.

Data set [3] concerns P. falciparum late stage gametocytes (PfLG, stages IV-V). Briefly: Chemical rescue with CoA pathway intermediates, late stage gametocytes. It counts as cell-based, Plasmodium falciparum. The following applies: inhibitor at IC80; for Percent rescue ± SEM by pantethine, PfLG: pantethine 5 mM; for Percent rescue ± SEM by pantothenate, PfLG: pantothenate 312.5 μM; for Percent rescue ± SEM by CoA, PfLG: CoA 1.8 mM; for Percent rescue ± SEM by dephospho CoA, PfLG: dP-CoA 2 mM. How it is done:
as §3, §4
as §5, with “compounds. The inhibitors were used at their respective final assay concentration of IC80 (as determined previously in the corresponding P. falciparum development stage or T. b. brucei assay).” for “compounds.”

The test system of data set [4] is P. falciparum asexual blood stage. The following applies: as previously reported; read-out: Asexual P. falciparum IC50 ± SEM; cited from earlier work.
[5] abbreviates: 40 µM, given if an IC50 could not be calculated.

Regarding `Cc1csc(Sc2ncnc3sccc23)n1` [Amb180780], in data set [1] (setting [5]), the “T. b. brucei trypomastigote percent inhibition at the highest concentration tested” value was 100%. Moreover, the “T. cruzi amastigote percent inhibition at the highest concentration tested” value with T. cruzi amastigotes is 21%. In addition, the “T. cruzi trypomastigote percent inhibition at the highest concentration tested” value in the data set on T. cruzi trypomastigotes (setting [5]) is listed as 100%. Moreover, the IC50 in the data set on 3T3 cells was more than 40000 nM. Also, the IC50 with MCF7 cells is more than 40000 nM. Moreover, in the data set on MDA-MB-231 cells, the IC50 is more than 40000 nM. Besides, in data set [2], the “Percent rescue ± SEM by CoA, PfEG” value is 111.3 ± 3.2% and ~100%; the “Percent rescue ± SEM by pantethine, PfEG” value was 94.2 ± 1.8% and ~100%; the “Percent rescue ± SEM by pantothenate, PfEG” value is listed as “No”. For the same compound, in data set [3], the “Percent rescue ± SEM by pantethine, PfLG” value was “No” and the “Percent rescue ± SEM by pantothenate, PfLG” value is “No”. Moreover, in data set [4], the IC50 is 120 ± 20 nM.

Turning to `CC(=O)c1ccc2c3c(onc13)-c1ccccc1C2=O` [Amb3377585], the IC50 is 200 nM in [1] (read-out: T. b. brucei IC50); 13300 ± 2350 nM in the data set with T. cruzi amastigotes; 740 nM and 744 nM in the data set with T. cruzi trypomastigotes; 9100 ± 620 nM with MCF7 cells; 5600 ± 330 nM with MDA-MB-231 cells; 150 ± 10 nM in data set [4]. Also, the “Percent rescue ± SEM by pantethine, PfEG” value in [2] is “No”. For the same compound, in [2], the “Percent rescue ± SEM by pantothenate, PfEG” value is given as “No”.

Take `CC(=O)C1=C(c2ccccc2)C(=O)c2ccccc2C1=O` [Amb4317088]: the IC50 in [1] (read-out: T. b. brucei IC50) is 160 nM; in the data set with T. cruzi amastigotes it was 4300 ± 270 nM; in the data set on T. cruzi trypomastigotes, 390 nM and 392 nM; in the data set on 3T3 cells it was 8600 ± 960 nM; in the data set on MCF7 cells it was 4600 ± 160 nM; in the data set with MDA-MB-231 cells it was 870 ± 40 nM. Moreover, in data set [4], the IC50 is 1230 ± 60 nM. In addition, the “Percent rescue ± SEM by pantethine, PfLG” value in [3] is on record as “No”. Further, in data set [3], the “Percent rescue ± SEM by pantothenate, PfLG” value is “No”.

Take `CC1=CC(=O)C(C(C)C)=C/C1=N/OS(=O)(=O)c1ccccc1` [STK 740987]: the half-inhibitory concentration (IC50) in data set [1] (highest concentration 40 μM, read-out: T. b. brucei trypomastigote IC50 ± SEM) is 1020 nM and 1000 nM. Also, the “T. cruzi amastigote percent inhibition at the highest concentration tested” value in the data set with T. cruzi amastigotes is 54%. For the same compound, the IC50 in the data set on T. cruzi trypomastigotes was 680 nM and 682 nM. In addition, the IC50 in the data set on 3T3 cells was more than 20000 nM. The IC50 in the data set with MCF7 cells is more than 40000 nM. The IC50 in the data set on MDA-MB-231 cells is more than 40000 nM. For the same compound, in data set [2], the “Percent rescue ± SEM by CoA, PfEG” value was 24.1 ±0.7% and 24 ± 1%; the “Percent rescue ± SEM by pantethine, PfEG” value was “No and not rescued by the other intermediates”; the “Percent rescue ± SEM by pantothenate, PfEG” value was “No and not rescued by the other intermediates”. Further, the “activity on early stage gametocytes at previously determined IC80 value” in data set [2] (compound alone in rescue experiment) is more than 95%. Besides, in data set [2] (inhibitor at IC50), the “Percent rescue by CoA, PfEG, at the compound's IC50” value was 61.5 ± 1.0% and 62 ± 1%; the “Percent rescue by dephospho CoA, PfEG, at the compound's IC50” value is 46.2 ± 2.4% and 46 ± 2%; the “Rescue by pantethine, PfEG, at the compound's IC50 (in words)” value is given as “unaffected”; the “Rescue by pantothenate, PfEG, at the compound's IC50 (in words)” value is recorded as “unaffected”. For the same compound, in [3], the “Percent rescue ± SEM by CoA, PfLG” value is reported as 53.1 ± 0.5%; the “Percent rescue ± SEM by dephospho CoA, PfLG” value is recorded as 50.3 ± 0.8%; the “Percent rescue ± SEM by pantethine, PfLG” value is on record as “No”; the “Percent rescue ± SEM by pantothenate, PfLG” value is given as “No”. Also, in [3] (listed as STK740987), the “Percent rescue ± SEM by CoA, PfLG” value was “approximately 50%” and the “Percent rescue ± SEM by dephospho CoA, PfLG” value is “approximately 50%”. For the same compound, in [4], the IC50 is 380 ± 60 nM.
